# Source: patent publication US11325892B2, “Compounds and methods for treating cancer” (Mayo Foundation for Medical Education and Research, priority 2014, dated 2022)
# Like-named read-outs stand apart in the source and are kept apart here.
# What was measured:
# Format in all cases: cell-based
# [1] = system: ATF6-UPRE luciferase reporter in A498 and ACHN cells; assay: ATF6-UPRE luciferase reporter assay; conditions: EC50 dose, 24H; both cell lines A498 and ACHN; completely blocked with OA
# Experimental: A498 and ACHN cells were transiently transfected with p5×ATF6-GL3 UPR luciferase reporter (Addgene plasmid#11976) and pRL-CMV-renilla (Promega) using Lipofectamine 2000 (Invitrogen). Cells were treated as indicated for 24H, prior to collection and analysis using Promega Dual Luciferase assay kit per manufacturer's specifications. Luciferase activity was measured using Veritas Luminometer (Promega); and results are reported as relative luminescence.
# (§1) Activating transcription factor 6 (ATF6) is a key regulator of the unfolded protein response (UPR) that recognizes unfolded protein response elements (UPRE) in the promoter regions of several key mediators of the ER stress response, initiating their transcription (Wang Y, Shen J, Arenzana N, Tirasophon W, Kaufman R J, Prywes R. Activation of ATF6 and an ATF6 DNA binding site by the endoplasmic reticulum stress response. J Biol Chem. Sep. 1, 2000; 275(35):27013-27020). A498 and ACHN transfected with an ATF6-UPRE luciferase reporter were treated with the EC50 doses of ChemBL375265, SSI-1, SSI-4, SSI-3, and SSI-2 with or without OA supplementation were evaluated in order to determine whether the identified compounds could recapitulate activation of the UPR. […] Upregulation of the UPR markers BiP (heat shock 70 kDa protein, GRP78) and CHOP (damage inducible transcript 3, DDIT3) was evaluated by Western blot in A498 and ACHN cells treated with the EC50 doses of ChemBL375265, SSI-1, SSI-4, SSI-3, and SSI-2 with or without OA supplementation.
# [2] = system: SNU449 HCC cells; assay: SNU449 cell proliferation (cellular DNA, Hoechst); conditions: Homo sapiens
# Experimental: SNU449 HCC cells were plated at 20,000 cells/well in 12-well plates. The next day, cells were treated with SSI-4, sorafenib or sorafenib plus SSI-4 at the indicated doses. […] On day 5, cells were frozen, DNA isolated and quantitated by […] (Hoechst reagent) in a spectrophotometer. Cellular DNA is directly proportional to cell number and is commonly used as a measure of cell number. All doses are in replicates of three with the mean +/−standard deviation determined.
# [3] = system: HK2, a transformed renal epithelial cell line; assay: High-throughput proliferative screen, non-cancerous cells
# Experimental: (§2) Cells were seeded at 5,000 cells/well in clear-bottom 96-well plates in triplicate in Maintenance Media. Drug treatment was applied at a concentration of 1:1000 in reduced serum (3%) Maintenance Media. After 72 hours, cells were washed with PBS, and stored at −80° C. prior to analysis using CyQuant® Proliferation Analysis Kit (Invitrogen) as per manufacturers' protocol for relative fluorescence units. Alternatively, cells were plated 2×10^5/well in 12-well plates (Midwest Scientific) in triplicate prior to drug treatment. After 120 hour treatment, cell number was established using a Coulter Particle Counter (Beckman). Or, cells were plated (0.5 or 1×10^5/well) in 24-well plates (Midwest Scientific), 3×. After 72 hour treatment, cell number established using Coulter Particle Counter (Beckman). Oleic acid-albumin (Sigma Aldrich) was added to media at 5 μM, and was applied adjuvant to drug treatment. Drug stocks were prepared in DMSO (Sigma) at 1000×. EC50 dosing per cell line was calculated using CalcuSyn® analytical software.
# In order to identify potential SCD1 inhibitors, a high-throughput proliferative-based screening method was used, with four ccRCC cell lines including A498, ACHN, Caki1, and Caki2. The SCD1 inhibitor MF-438 was included as a positive control. Known compounds ChemBL375265 (Liu G, Lynch J K, Freeman J, et al. Discovery of potent, selective, orally bioavailable stearoyl-CoA desaturase 1 inhibitors. Journal of medicinal chemistry. Jun. 28, 2007; 50(13): 3086-3100) (SetA.100) and SAR707 (Voss M D, Zoller G, Matter H, et al. Discovery and pharmacological characterization of SAR707 as novel and selective small molecule inhibitor of stearoyl-CoA desaturase (SCD1). European journal of pharmacology. May 5, 2013; 707(1-3): 140-146) (TC03.100) were included as single-blinded positive controls, and are indicated with an asterisk (*). […]
# [4] = system: BiP and CHOP expression in A498 and ACHN cells; assay: Western blot for UPR markers BiP and CHOP; conditions: EC50 dose; both cell lines; blocked with concomitant OA treatment
# Experimental: Protein extraction and western blot analysis was performed as previously described (Copland J A, Marlow L A, Kurakata S, et al. Novel high-affinity PPARgamma agonist alone and in combination with paclitaxel inhibits human anaplastic thyroid carcinoma tumor growth via p21WAF1/CIP1. Oncogene. Apr 13 2006; 25(16):2304-2317). Primary antibodies included SCD1 (Sigma-Aldrich, #HPA012107), BiP (Cell Signaling, #3183), CHOP (Cell Signaling, #2895), sXBP1(Santa Cruz Biotechnology, #sc-7160), PARP(Cell Signaling, #9542), and β-actin (Sigma-Aldrich, #A5441).
# as §1
# [5] = system: A498, ACHN, and Caki1 cell lines; assay: Oleic acid (OA) rescue assay of cell proliferation in ccRCC cells; conditions: EC50 dose of compound with OA (5 μg/μL); all three cell lines
# Experimental: as §2
# A498, ACHN, and Caki1 cell lines were treated with the EC50 dose of each MF-438, ChemBL375265, SSI-1, SSI-4, SSI-3, and SSI-2 with or without concomitant application of OA (5 μg/μL). […] Representative images of A498 cell morphology and density treated with each compound +/−OA are shown in (FIG. 2B).
# [6] = system: kidney cancer cells; assay: Combination with mTor inhibitor temsirolimus, cell proliferation; conditions: different concentrations with 0, 0.1, 1, and 10 nM temsirolimus
Structure (SMILES),luciferase activity [1],"IC50 ([2]; SNU-449, SNU449, read-out: IC50 (dose at which 50% of cell proliferation is inhibited)) [µM]",reduction in cell proliferation [3],BiP and CHOP expression [4],rescue of cell proliferation with OA [5],kidney cancer cell proliferation [6],"IC50 ([2]; SNU-449, read-out: IC50 (dose at which 50% of cell proliferation is inhibited)) [µM]"
"CNC(=O)c1ccnc(NC(=O)N2CCC(Oc3ccccc3Cl)CC2)c1 [SSI-4, 2-{[4-(2-Chlorophenoxy)piperidine-1-carbonyl]amino}-N-methylpyridine-4-carboxamide]",significant upregulation of luciferase activity,0.0032,approximately 20%,strongly induced both BiP and CHOP expression,Near total rescue of cell proliferation,reduced kidney cancer cell proliferation,–
CNC(=O)c1cc(Oc2ccc(NC(=O)Nc3ccc(Cl)c(C(F)(F)F)c3)cc2)ccn1 [sorafenib],–,–,–,–,–,–,2
